Measurements as given in ChEMBL document CHEMBL1201861, “Genomics of Drug Sensitity in Cancer screening data, Wellcome Trust Sanger Institute”.
pIC50: −log10 of the molar value.

Key:
Experiment in all cases: cells
DOHH-2 = format: functional, cell-based, Homo sapiens; settings: Homo sapiens, DOHH-2;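 also: growth inhibition of human DOHH-2 cells, read out with a cell viability assay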
Description: SANGER: Inhibition of human DOHH-2 cell growth in a cell viability assay.

NCI-N87 = format: functional, cell-based; settings: Homo sapiens;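 also: growth inhibition of human NCI-N87 cells, read out with a cell viability assay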
Description: SANGER: Inhibition of human NCI-N87 cell growth in a cell viability assay.

NB69 = format: functional, cell-based, Homo sapiens; settings: Homo sapiens, NB69;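 also: growth inhibition of NB69 cells, determined by a cell viability assay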
Description: SANGER: Inhibition of human NB69 cell growth in a cell viability assay.

BB30-HNC = format: functional, cell-based, Homo sapiens; settings: Homo sapiens, BB30-HNC;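 also: growth inhibition of the cultured cell line, read out by a cell viability assay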
Description: SANGER: Inhibition of human BB30-HNC cell growth in a cell viability assay.

BE-13 = format: functional, cell-based, Homo sapiens; settings: Homo sapiens, BE-13;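 also: growth inhibition of human BE-13 cells, measured with a cell viability assay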
Description: SANGER: Inhibition of human BE-13 cell growth in a cell viability assay.

NB6 = format: functional, cell-based, Homo sapiens; settings: Homo sapiens, NB6
Description: SANGER: Inhibition of human NB6 cell growth in a cell viability assay.

SW982 = format: functional, cell-based; settings: Homo sapiens;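 also: growth inhibition of SW982 cells, read out with a cell viability assay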
Description: SANGER: Inhibition of human SW982 cell growth in a cell viability assay.

BB65-RCC = format: functional, cell-based, Homo sapiens; settings: Homo sapiens, BB65-RCC;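 also: growth inhibition of the cell line, measured with a cell viability assay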
Description: SANGER: Inhibition of human BB65-RCC cell growth in a cell viability assay.

SK-N-FI = format: functional, cell-based, Homo sapiens; settings: Homo sapiens, SK-N-FI;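 also: cell viability assay measuring growth inhibition of human SK-N-FI cells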
Description: SANGER: Inhibition of human SK-N-FI cell growth in a cell viability assay.

HCC2218 = format: functional, cell-based, Homo sapiens; settings: Homo sapiens, HCC2218;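 also: cell viability assay read-out, with IC50 given as the concentration that inhibits growth of the cell line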
Description: SANGER: Inhibition of human HCC2218 cell growth in a cell viability assay.

EM-2 = format: functional, cell-based, Homo sapiens; settings: Homo sapiens, EM-2;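 also: growth inhibition of EM-2 cells, read out with a cell viability assay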
Description: SANGER: Inhibition of human EM-2 cell growth in a cell viability assay.

MZ2-MEL = format: functional, cell-based, Homo sapiens; settings: Homo sapiens, MZ2-MEL;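 also: growth inhibition of MZ2-MEL cells read out with a cell viability assay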
Description: SANGER: Inhibition of human MZ2-MEL cell growth in a cell viability assay.

MSTO-211H = format: functional, cell-based, Homo sapiens; settings: Homo sapiens, MSTO-211H
Description: SANGER: Inhibition of human MSTO-211H cell growth in a cell viability assay.

SJSA-1 = format: functional, cell-based, Homo sapiens; settings: Homo sapiens, SJSA-1;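 also: growth inhibition of human SJSA-1 cells, read out through a cell viability measurement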
Description: SANGER: Inhibition of human SJSA-1 cell growth in a cell viability assay.

HCE-4 = format: functional, cell-based; settings: Homo sapiens;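 also: cell viability assay measuring inhibition of growth in the human HCE-4 cell line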
Description: SANGER: Inhibition of human HCE-4 cell growth in a cell viability assay.

NEC8 = format: functional, cell-based, Homo sapiens; settings: Homo sapiens, NEC8;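 also: growth inhibition of human NEC8 cells, read out by a cell viability assay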
Description: SANGER: Inhibition of human NEC8 cell growth in a cell viability assay.

KP-N-YS = format: functional, cell-based, Homo sapiens; settings: Homo sapiens, KP-N-YS;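 also: cell viability assay measuring inhibition of cell line growth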
Description: SANGER: Inhibition of human KP-N-YS cell growth in a cell viability assay.

JAR = format: functional, cell-based, Homo sapiens; settings: Homo sapiens, JAR;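 also: growth inhibition of human JAR cells determined with a cell viability assay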
Description: SANGER: Inhibition of human JAR cell growth in a cell viability assay.

MC116 = format: functional, cell-based, Homo sapiens; settings: Homo sapiens, MC116;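 also: growth inhibition of MC116 cells, read out with a cell viability assay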
Description: SANGER: Inhibition of human MC116 cell growth in a cell viability assay.

NB13 = format: functional, cell-based, Homo sapiens; settings: Homo sapiens, NB13;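 also: cell viability readout measuring growth inhibition of human NB13 cells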
Description: SANGER: Inhibition of human NB13 cell growth in a cell viability assay.

GCIY = format: functional, cell-based, Homo sapiens; settings: Homo sapiens, GCIY;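 also: growth inhibition of the human GCIY cell line, read out by a cell viability assay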
Description: SANGER: Inhibition of human GCIY cell growth in a cell viability assay.

SW 954 = format: functional, cell-based, Homo sapiens; settings: Homo sapiens, SW 954;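 also: growth inhibition of SW954 human cancer cells, read out as cell viability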
Description: SANGER: Inhibition of human SW954 cell growth in a cell viability assay.

NCI-H720 = format: functional, cell-based, Homo sapiens; settings: Homo sapiens, NCI-H720;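 also: growth inhibition of human NCI-H720 cells determined by a cell viability assay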
Description: SANGER: Inhibition of human NCI-H720 cell growth in a cell viability assay.

KNS-42 = format: functional, cell-based; settings: Homo sapiens;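 also: growth inhibition of KNS-42 cells, read out with a cell viability assay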
Description: SANGER: Inhibition of human KNS-42 cell growth in a cell viability assay.

SNU-5 = format: functional, cell-based, Homo sapiens; settings: Homo sapiens, SNU-5;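 also: cell viability readout used to measure growth inhibition in human NCI-SNU-5 cells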
Description: SANGER: Inhibition of human NCI-SNU-5 cell growth in a cell viability assay.

TGBC24TKB = format: functional, cell-based; settings: Homo sapiens;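 also: growth inhibition of human TGBC24TKB cells, read out with a cell viability assay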
Description: SANGER: Inhibition of human TGBC24TKB cell growth in a cell viability assay.

NCI-H1355 = format: functional, cell-based, Homo sapiens; settings: Homo sapiens, NCI-H1355;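 also: growth inhibition of human NCI-H1355 cells, read out by a cell viability assay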
Description: SANGER: Inhibition of human NCI-H1355 cell growth in a cell viability assay.

CW-2 = format: functional, cell-based, Homo sapiens; settings: Homo sapiens, CW-2;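 also: growth inhibition of CW-2 cells, read out by a cell viability assay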
Description: SANGER: Inhibition of human CW-2 cell growth in a cell viability assay.

C2BBe1 = format: functional, cell-based, Homo sapiens; settings: Homo sapiens, C2BBe1;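 also: growth inhibition of C2BBe1 cells, read out through a viability assay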
Description: SANGER: Inhibition of human C2BBe1 cell growth in a cell viability assay.

DMS-114 = format: functional, cell-based, Homo sapiens; settings: Homo sapiens, DMS-114
MV4-11 = format: functional, cell-based, Homo sapiens, MV-4-11; settings: Homo sapiens, MV4-11;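 also: cell viability readout measuring growth inhibition of human MV-4-11 cells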
Description: SANGER: Inhibition of human MV-4-11 cell growth in a cell viability assay.

HDLM-2 = format: functional, cell-based, Homo sapiens; settings: Homo sapiens, HDLM-2;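 also: cell viability assay measuring suppression of HDLM-2 proliferation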
Description: SANGER: Inhibition of human HDLM-2 cell growth in a cell viability assay.

SNU-C2B = format: functional, cell-based; settings: Homo sapiens;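 also: cell viability readout used to measure compound-driven suppression of SNU-C2B cell proliferation, IC50 marking half-maximal growth inhibition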
Description: SANGER: Inhibition of human SNU-C2B cell growth in a cell viability assay.

TE-10 = format: functional, cell-based, Homo sapiens; settings: Homo sapiens, TE-10;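 also: growth inhibition of TE-10 cells, measured by a cell viability assay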
Description: SANGER: Inhibition of human TE-10 cell growth in a cell viability assay.

NCI-H1155 = format: functional, cell-based, Homo sapiens; settings: Homo sapiens, NCI-H1155;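 also: cell growth inhibition measured by a viability assay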
Description: SANGER: Inhibition of human NCI-H1155 cell growth in a cell viability assay.

UACC-257 = format: functional, cell-based, Homo sapiens; settings: Homo sapiens, UACC-257
Description: SANGER: Inhibition of human UACC-257 cell growth in a cell viability assay.

A498 = format: functional, cell-based, Homo sapiens; settings: Homo sapiens, A498;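 also: growth inhibition of human A498 cells, read out with a cell viability assay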
Description: SANGER: Inhibition of human A498 cell growth in a cell viability assay.

A388 = format: functional, cell-based; settings: Homo sapiens;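 also: growth inhibition of human A388 cells, read out with a cell viability assay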
Description: SANGER: Inhibition of human A388 cell growth in a cell viability assay.

NCI-H209 = format: functional, cell-based, Homo sapiens; settings: Homo sapiens, NCI-H209;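 also: growth inhibition of human NCI-H209 cells, measured by a cell viability assay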
Description: SANGER: Inhibition of human NCI-H209 cell growth in a cell viability assay.

EW-1 = format: functional, cell-based, Homo sapiens; settings: Homo sapiens, EW-1;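 also: growth inhibition of the human EW-1 cell line, read out by a cell viability assay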
Description: SANGER: Inhibition of human EW-1 cell growth in a cell viability assay.

L-428 = format: functional, cell-based, Homo sapiens; settings: Homo sapiens, L-428
Description: SANGER: Inhibition of human L-428 cell growth in a cell viability assay.

EW-3 = format: functional, cell-based, Homo sapiens; settings: Homo sapiens, EW-3;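 also: cell viability assay read-out, IC50 reflects inhibition of growth of the EW-3 cells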
Description: SANGER: Inhibition of human EW-3 cell growth in a cell viability assay.

U-87 MG = format: functional, cell-based, Homo sapiens, U-87MG ATCC; settings: Homo sapiens, U-87 MG;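 also: growth inhibition of the cells measured with a viability assay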
Description: SANGER: Inhibition of human U-87-MG cell growth in a cell viability assay.

NCI-H82 = format: functional, cell-based, Homo sapiens; settings: Homo sapiens, NCI-H82;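 also: growth inhibition of NCI-H82 cells, measured with a cell viability readout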
Description: SANGER: Inhibition of human NCI-H82 cell growth in a cell viability assay.

SK-NEP-1 = format: functional, cell-based, Homo sapiens; settings: Homo sapiens, SK-NEP-1;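 also: growth inhibition of human SK-NEP-1 cells, read out by a cell viability assay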
Description: SANGER: Inhibition of human SK-NEP-1 cell growth in a cell viability assay.

IST-MES1 = format: functional, cell-based, Homo sapiens; settings: Homo sapiens, IST-MES1;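 also: growth inhibition of IST-MES1 cells, measured with a cell viability assay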
Description: SANGER: Inhibition of human IST-MES1 cell growth in a cell viability assay.

DU-4475 = format: functional, cell-based, Homo sapiens; settings: Homo sapiens, DU-4475
Description: SANGER: Inhibition of human DU-4475 cell growth in a cell viability assay.

ES3 = format: functional, cell-based, Homo sapiens; settings: Homo sapiens, ES3;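 also: growth inhibition of ES3 cells, read out with a cell viability assay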
Description: SANGER: Inhibition of human ES3 cell growth in a cell viability assay.

A253 cell line = format: functional, cell-based, Homo sapiens; settings: Homo sapiens, A253;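 also: growth inhibition of A253 cells, read out with a cell viability assay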
Description: SANGER: Inhibition of human A253 cell growth in a cell viability assay.

CGTH-W-1 = format: functional, cell-based, Homo sapiens; settings: Homo sapiens, CGTH-W-1;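 also: growth inhibition of human CGTH-W-1 cells measured by cell viability assay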
Description: SANGER: Inhibition of human CGTH-W-1 cell growth in a cell viability assay.

Measured: pIC50

CO[C@@H]1[C@H](N(C)C(=O)c2ccccc2)C[C@H]2O[C@]1(C)n1c3ccccc3c3c4c(c5c6ccccc6n2c5c31)C(=O)NC4 [MIDOSTAURIN]
< 6.29: DOHH-2 | NCI-N87 | NB69 | BE-13
6.49: BB30-HNC

CN(C)CCOc1ccc(-c2nc(-c3ccncc3)c(-c3ccc4c(c3)CC/C4=N\O)[nH]2)cc1 [SB590885]
7.63: DU-4475
5.98: HCC2218
5.45: EW-3
5.95: UACC-257
5.80: SNU-5
5.71: C2BBe1
< 5.30: all other assays above
